Results: PubChem BioAssay (NCI)
Several values for one entry are separate records, joined by “and”; a condition that tells them apart may be missing. Equal entries are not always repeated.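 Where inhibition never reached the appropriate level, the endpoint shown equals the highest concentration tested. Otherwise, values were interpolated linearly from a five-concentration, 48-hour dose response in 96-well plates. Here, GI50 denotes the concentration required for 50% inhibition of growth. TGI: concentration producing complete growth inhibition.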

Experiments:
Assay in all cases: NCI anticancer screen, dose series, 48 h
COLO 205 colon = system: COLO 205 colon
SF-539 CNS = system: SF-539 CNS
CAKI-1 renal = system: CAKI-1 renal
OVCAR-3 ovarian = system: OVCAR-3 ovarian
UACC-257 melanoma = system: UACC-257 melanoma
LOX IMVI melanoma = system: LOX IMVI melanoma
NCI-H226 lung = system: NCI-H226 lung
UACC-62 melanoma = system: UACC-62 melanoma
HT29 colon = system: HT29 colon
UO-31 renal = system: UO-31 renal

| SMILES | GI50 (COLO 205 colon) | TGI (COLO 205 colon) | GI50 (SF-539 CNS) | TGI (SF-539 CNS) | GI50 (CAKI-1 renal) | TGI (CAKI-1 renal) | GI50 (OVCAR-3 ovarian) | TGI (OVCAR-3 ovarian) | GI50 (UACC-257 melanoma) | GI50 (LOX IMVI melanoma) | TGI (LOX IMVI melanoma) | GI50 (NCI-H226 lung) | TGI (NCI-H226 lung) | GI50 (UACC-62 melanoma) | TGI (UACC-62 melanoma) | GI50 (HT29 colon) | TGI (HT29 colon) | GI50 (UO-31 renal) | TGI (UO-31 renal) | TGI (UACC-257 melanoma) |
| --- | --- | --- | --- | --- | --- | --- | --- | --- | --- | --- | --- | --- | --- | --- | --- | --- | --- | --- | --- | --- |
| CN1CCCN(CCNc2nccc(-c3c(-c4cccc(O)c4)nc4sccn34)n2)S1(=O)=O | 0.423 µM and 0.477 µM | 12.4 µM and 21.8 µM | 18.7 µM and 22.2 µM | 75 µM and > 100 µM | 2.25 µM and 2.15 µM | 23.5 µM and 16.3 µM | 13.7 µM and 7.69 µM | 75 µM and 99 µM | 0.132 µM and 1.01 µM | 1.55 µM and 1.99 µM | 16.7 µM and 21.5 µM | 15.3 µM and 11.3 µM | 50 µM and 54.5 µM | 0.0417 µM and 0.0537 µM | 1.4 µM and 2.22 µM | 2.32 µM and 2.33 µM | 42.2 µM and > 100 µM | 5.2 µM and 6.46 µM | 39 µM and > 87.2 µM |  |
| CCN(CC)c1ccc(NC(=S)NN(C)C)cc1 |  | > 10 µM |  | > 10 µM |  | > 10 µM |  | > 10 µM |  |  | > 10 µM |  | > 10 µM |  | > 10 µM |  | > 10 µM |  | > 10 µM | > 10 µM |
| CC(=O)c1cccc(N(/C=C/C(=O)C(F)(F)F)CC(=O)c2ccc(Cl)cc2)c1 | > 100 µM | > 100 µM | > 100 µM | > 100 µM | > 100 µM | > 100 µM | > 100 µM | > 100 µM | > 100 µM | > 100 µM | > 100 µM | > 100 µM | > 100 µM | > 100 µM | > 100 µM | > 100 µM | > 100 µM | > 100 µM | > 100 µM | > 100 µM |
| Fc1cccc(COc2ccc(Nc3ncnc4sc(-c5ccco5)cc34)cc2Cl)c1 | > 25 µM | > 25 µM | > 25 µM | > 25 µM | > 25 µM | > 25 µM | > 25 µM | > 25 µM | > 25 µM | > 25 µM | > 25 µM | > 25 µM | > 25 µM | > 25 µM | > 25 µM | > 25 µM | > 25 µM | > 25 µM | > 25 µM | > 25 µM |
| CC1(C)C(=O)C(O)=CC2C1=CCC1C2(C)C(=O)CC2(C)C(C(C)(O)C(=O)CC(O)C(C)(C)O)C(O)CC12C (configuration not stated) |  | > 100 µM |  | 5.98 µM |  | 5.1 µM |  | 10.2 µM |  |  | 6.95 µM |  | 7.31 µM |  | 29.7 µM |  | > 64.5 µM |  | 4.49 µM | 30.2 µM |
| CC(C)n1c(/C=C/[C@@H](O)C[C@@H](O)CC(=O)O)c(-c2ccc(F)cc2)c2ccccc21 | 4.44 µM and 6.2 µM | 15.3 µM and > 65.1 µM | 25.7 µM and 10.5 µM | > 100 µM | 0.594 µM and 0.542 µM | 2.99 µM and 2.69 µM | 12.2 µM and 15 µM | 46.7 µM and > 100 µM | 52.7 µM and 47.5 µM | 0.465 µM and 0.653 µM | > 40.1 µM and 5.62 µM | 2.89 µM and 3.71 µM | > 100 µM | 0.526 µM and 0.537 µM | 34.4 µM and 25 µM | 12.8 µM and 15.6 µM | > 100 µM | 4.91 µM and 3.26 µM | > 100 µM | > 100 µM |
| CCOc1ccc(NCC2CC/C(=C\C=C\c3ccccc3)C2=O)cc1 (configuration not stated) |  | 31.7 µM |  | 37.8 µM |  | > 40.8 µM |  | 34.4 µM |  |  | 23.5 µM |  | > 100 µM |  | 54.2 µM |  | 30.3 µM |  | 66.2 µM | 38.4 µM |
| O=C(O)c1cc[c]([Hg][S]c2ncnc3nc[nH]c23)cc1 | 12.4 µM | 26.9 µM | 7.39 µM | 25.6 µM | 4.96 µM | 21.1 µM | 1.88 µM | 19.9 µM | 10.4 µM | 0.684 µM | 17.1 µM | > 39 µM | > 68 µM | 2.88 µM | 15.4 µM | 7.27 µM | 21.7 µM | 4.79 µM | 17 µM | 22.9 µM |
| Cc1ccc(C(=O)Nc2ccc(CN3CCN(C)CC3)c(C(F)(F)F)c2)cc1C#Cc1cnc(N)c2ccc(F)cc12 | 0.301 µM | 0.933 µM | 0.527 µM | 1.24 µM | 0.216 µM | 1.29 µM | 0.359 µM | 1.06 µM | 0.594 µM | 0.216 µM | 0.557 µM | 0.737 µM | 3.66 µM | 0.329 µM | 1.02 µM | 0.133 µM | 0.865 µM | 0.121 µM | 0.748 µM | 1.95 µM |
| O=c1oc2ccccc2c(O)c1C=NC(=S)c1ccncc1 |  | > 100 µM |  | > 100 µM |  | > 100 µM |  | > 100 µM |  |  | > 100 µM |  | > 100 µM |  | > 100 µM |  | > 100 µM |  | > 100 µM | > 100 µM |
| CC(C)N(C(C)C)[PH+]1O[PH+](N(C(C)C)C(C)C)O[PH+](N(C(C)C)C(C)C)O[PH+](N(C(C)C)C(C)C)O[PH+](N(C(C)C)C(C)C)O1.[C-]#[O+].[C-]#[O+].[C-]#[O+].[C-]#[O+].[C-]#[O+].[C-]#[O+].[C-]#[O+].[Cr].[Cr] (configuration not stated) | > 100 µM | > 100 µM | > 100 µM | > 100 µM | > 100 µM | > 100 µM | > 100 µM | > 100 µM | > 100 µM | > 100 µM | > 100 µM | > 100 µM | > 100 µM | > 100 µM | > 100 µM | > 100 µM | > 100 µM | > 100 µM | > 100 µM | > 100 µM |
| COc1ccc(-c2cc(-c3ccc(Cl)cc3)c(C#N)c(=O)n2CCCCC(=O)Nc2ccccc2N)cc1 | 4.04 µM | > 100 µM | 19.4 µM | > 100 µM | 2.52 µM | 20.2 µM | 13.5 µM | 56.6 µM | 4.48 µM | 1.16 µM | 2.92 µM | 6.26 µM | 70.9 µM | 3.29 µM | 13 µM | 3.44 µM | > 100 µM | 4.71 µM | > 100 µM | > 100 µM |
| Clc1ccc(COC(Cn2ccnc2)c2ccc(Cl)cc2Cl)cc1 (configuration not stated) | 1.84 µM | 3.97 µM and 24.6 µM and 22.5 µM | 4.6 µM | 16.4 µM and 38.3 µM and 29.4 µM | 2.05 µM | 9.58 µM and 24.9 µM and 23.6 µM | 2.5 µM | 6.49 µM and 23.2 µM and 25.1 µM | 2.63 µM | 0.533 µM |  |  | 22.1 µM and 50 µM and 11.7 µM | 2.16 µM | 11.9 µM and 25.2 µM and 22.3 µM | 1.95 µM | 5.22 µM and 22.4 µM and 21.5 µM | 1.44 µM | 5.91 µM and 17.4 µM and 14.6 µM | 9.14 µM and 27.7 µM and 22.5 µM |
| O=C(CCc1nc(=S)[nH][nH]1)NC12CC3CC(CC(C3)C1)C2 |  | > 100 µM |  | > 100 µM |  | > 100 µM |  | > 100 µM |  |  | > 100 µM |  | > 100 µM |  | > 100 µM |  | > 100 µM |  | > 100 µM | > 100 µM |
